Experimental findings from US9375004B2 (Bayer Intellectual Property GmbH, priority 2010, dated 2016) are described below.

One data set has as its system Alternaria solani. As to the kind of experiment: Alternaria test (tomato)/preventive. It is filed as in vivo. The conditions noted are these: 500 ppm, preventive, evaluated 7 days after inoculation.
A further data set has as its system Sphaerotheca fuliginea. As to the kind of experiment: Sphaerotheca test (cucumber)/preventive. In kind it is in vivo. The conditions noted are these: 500 ppm, preventive, evaluated 7 days after inoculation.
A further data set has as its system Puccinia triticina. Kind of data set: Puccinia triticina-test (wheat)/preventive. It is filed as in vivo. The conditions noted are these: 500 ppm, preventive, evaluated 8 days after inoculation.
In the next data set the test system is Pyrenophora teres. As to the kind of experiment: Pyrenophora teres-test (barley)/preventive. It is filed as in vivo. The following applies: 500 ppm, preventive, evaluated 8 days after inoculation.
A further data set relates to Septoria tritici. As to the kind of experiment: Septoria tritici-test (wheat)/preventive. It is filed as in vivo. The conditions noted are these: 500 ppm, preventive, evaluated 21 days after inoculation.
The nature of data set [1]: logP by HPLC on reversed-phase column (EEC Directive 79/831 Annex V.A8). The conditions noted are these: HPLC on reversed-phase column (C 18), EEC Directive 79/831 Annex V.A8.
The subject of another data set is Uromyces appendiculatus. The conditions noted are these: 100 ppm, beans, preventive, evaluated 10 days after inoculation.
A further data set has as its system Botrytis cinerea. Kind of data set: Botrytis test (beans)/preventive. The conditions noted are these: 100 ppm, preventive, lesion size 2 days after inoculation.
In another data set the test system is Venturia inaequalis. Kind of data set: Venturia test (apples)/preventive. The conditions noted are these: 100 ppm, preventive, evaluated 10 days after inoculation.
Data set [2] deals with Fusarium nivale (var. majus). As to the kind of experiment: Fusarium nivale (var. majus)-test (wheat)/preventive. The conditions noted are these: preventive, evaluated 5 days after inoculation.
Experimental: Fusarium Nivale (Var. Majus)-Test (Wheat)/Preventive
Solvent: 49 parts by weight of N,N-dimethylacetamide
(§1) Emulsifier: 1 part by weight of alkylaryl polyglycol ether
After the spray coating has been dried, the plants are slightly injured by using a sandblast and afterwards they are sprayed with a conidia suspension of Fusarium nivale (var. majus).
The plants are placed in the greenhouse under a translucent incubation cabinet at a temperature of approximately 10° C. and a relative atmospheric humidity of approximately 100%.
The test is evaluated 5 days after the inoculation.

The structures appear in SMILES notation.

Experimental for Botrytis cinerea: Botrytis Test (Beans)/Preventive
Solvent: 24.5 parts by weight of acetone • 24.5 parts by weight of N,N-dimethylformamide
as §1
After the spray coating has dried on, 2 small pieces of agar covered with growth of Botrytis cinerea are placed on each leaf. The inoculated plants are placed in a darkened chamber at 20° C. and a relative atmospheric humidity of 100%.
2 days after the inoculation, the size of the lesions on the leaves is evaluated.

The logP is the decadic logarithm of the partition coefficient of the neutral form, usually between octanol and water. Low readings indicate lower lipophilicity, high ones higher lipophilicity. In the case of `Cn1nc(C(F)F)c(C(=O)Nc2ccccc2-c2ccc(F)c(F)c2)c1F` [Example 90], the Efficacy is 90% in the data set on Alternaria solani; 95% in the data set on Sphaerotheca fuliginea; 100% with Puccinia triticina; 100% in the data set on Pyrenophora teres; 86% in the data set on Septoria tritici. In data set [1], the logP was 3.20.
As to `Cn1nc(C(F)F)c(C(=O)Nc2cccc3c2C2CCC3C2=C(Cl)Cl)c1F` (stereo not shown) [Example 72], the Efficacy in the data set on Alternaria solani is given as 70%; in the data set with Sphaerotheca fuliginea, 100%; with Puccinia triticina, 94%; with Pyrenophora teres, 100%; with Uromyces appendiculatus, 100%; in the data set on Botrytis cinerea, 100%. The Efficacy (in the data set on Venturia inaequalis; in data set [2] (250 ppm); in data set [2] (500 ppm)) was 100% in each case. The logP in data set [1] worked out at 3.99.
Regarding `Cn1nc(C(F)F)c(C(=O)Nc2ccccc2-c2ccc(Br)c(Cl)c2)c1F` [Example 152], the Efficacy with Alternaria solani is given as 94%; in the data set with Sphaerotheca fuliginea it was 95%; in the data set with Puccinia triticina, 100%; with Pyrenophora teres, 100%; with Uromyces appendiculatus it was 100%; in the data set on Botrytis cinerea, 100%. The Efficacy (with Venturia inaequalis; in data set [2] (500 ppm)) was 100% throughout. For the same molecule, in data set [1], the logP worked out at 3.83.
Turning to `Cn1nc(C(F)F)c(C(=O)Nc2ccccc2-c2ccc(Br)c(Cl)c2)c1Cl` [Example 153], the Efficacy in the data set with Alternaria solani is recorded as 90%; in the data set with Sphaerotheca fuliginea, 100%; in the data set on Puccinia triticina, 100%; in the data set on Pyrenophora teres, 100%; in the data set with Septoria tritici it was 86%; with Uromyces appendiculatus it was 100%. Besides, the Efficacy with Botrytis cinerea worked out at 75%; with Venturia inaequalis it was 95%; in [2] (500 ppm), 93%. Moreover, in data set [1], the logP was 4.19.
Consider `Cn1nc(C(F)F)c(C(=S)Nc2ccccc2-c2ccc(C(F)(F)F)c(F)c2)c1Cl` [Example 151], for which the Efficacy in the data set on Alternaria solani was 95%; in the data set on Sphaerotheca fuliginea, 98%; with Puccinia triticina, 100%; with Pyrenophora teres, 100%; in the data set with Septoria tritici, 93%; in data set [2] (500 ppm) it was 100%. The same molecule gave a logP in data set [1] of 4.06.
With `Cn1nc(C(F)F)c(C(=O)Nc2ccc(F)cc2OCC(C)(C)C)c1F` [Example 28], the Efficacy in the data set with Alternaria solani amounted to 70%; in the data set on Puccinia triticina, 100%; in the data set on Pyrenophora teres, 71%; in the data set on Septoria tritici, 90%; with Uromyces appendiculatus, 94%; in the data set on Venturia inaequalis it was 100%. The molecule further registered a lipophilicity (logP) in [1] of 4.08.
Take `Cn1nc(C(F)F)c(C(=O)Nc2ccccc2OCc2ccc(Cl)cc2Cl)c1Cl` [Example 163]: the Efficacy in the data set with Puccinia triticina came out at 71%; in the data set on Pyrenophora teres it was 92%; in the data set with Septoria tritici it was 71%. Besides, in [1], the lipophilicity (logP) was 4.81.
`Cn1nc(C(F)F)c(C(=O)Nc2ccccc2-c2ccc(Cl)cc2)c1F` [Example 85]: the Efficacy in the data set on Alternaria solani was 95%; in the data set on Sphaerotheca fuliginea it was 98%; in the data set with Puccinia triticina, 100%; in the data set with Pyrenophora teres, 100%; with Uromyces appendiculatus it was 100%; with Botrytis cinerea, 100%. Moreover, the Efficacy (with Venturia inaequalis; in [2] (500 ppm)) was 100% in each case. This molecule displayed a logP in data set [1] of 3.57.
On to `Cn1nc(C(F)F)c(C(=O)Nc2ccccc2-c2ccc(Cl)cc2)c1Cl` [Example 88], for which the Efficacy worked out at 94% in the data set with Alternaria solani; 100% in the data set on Sphaerotheca fuliginea; 100% in the data set with Puccinia triticina; 100% in the data set on Pyrenophora teres; 100% in the data set on Uromyces appendiculatus; 92% in the data set with Botrytis cinerea. For the same molecule, the Efficacy (in the data set with Venturia inaequalis; in data set [2] (500 ppm)) was 100% in each case. This molecule registered a logP in data set [1] of 3.85.
In the case of `Cn1nc(C(F)F)c(C(=O)Nc2ccc(F)cc2-c2ccc(C(F)(F)F)cc2)c1F` [Example 118], the Efficacy in the data set with Alternaria solani was 100%; with Sphaerotheca fuliginea, 100%; in the data set on Puccinia triticina, 100%; with Pyrenophora teres, 100%; with Septoria tritici, 86%; in the data set with Uromyces appendiculatus, 95%. In addition, the Efficacy in the data set with Botrytis cinerea is on record as 100%; in the data set with Venturia inaequalis it was 100%; in data set [2] (500 ppm), 71%. Further, the logP in [1] amounted to 3.60.
Consider `Cn1nc(C(F)F)c(C(=O)Nc2ccc(F)cc2-c2ccc(C(F)(F)F)c(F)c2)c1F` [Example 150], for which the Efficacy with Alternaria solani is reported as 89%; in the data set with Sphaerotheca fuliginea, 100%; with Puccinia triticina it was 100%; in the data set with Pyrenophora teres, 100%; in the data set with Uromyces appendiculatus, 98%; with Botrytis cinerea, 100%. In addition, the Efficacy was 100% with Venturia inaequalis and 86% in [2] (500 ppm). This molecule also displayed a logP in data set [1] of 3.66.
Regarding `Cn1nc(C(F)F)c(C(=O)Nc2ccccc2-c2ccc(Cl)c(F)c2)c1F` [Example 100], the Efficacy in the data set with Alternaria solani is reported as 80%; in the data set on Sphaerotheca fuliginea it was 100%; with Puccinia triticina, 100%; in the data set with Pyrenophora teres, 100%; with Septoria tritici, 100%; with Uromyces appendiculatus it was 99%. Moreover, the Efficacy came to 99% in the data set with Botrytis cinerea, 99% in the data set with Venturia inaequalis and 90% in data set [2] (500 ppm). Besides, the logP in data set [1] was determined as 3.45.
For the molecule `Cn1nc(C(F)F)c(C(=S)Nc2ccccc2-c2cc(F)c(F)c(F)c2)c1F` [Example 106], the Efficacy is 90% with Alternaria solani; 98% with Sphaerotheca fuliginea; 100% with Puccinia triticina; 100% with Pyrenophora teres; 80% in the data set with Septoria tritici; 100% with Uromyces appendiculatus. Moreover, the Efficacy in the data set with Venturia inaequalis amounted to 100%. In data set [1], this molecule yielded a lipophilicity (logP) of 3.65.
In the case of `Cn1nc(C(F)F)c(C(=O)Nc2cccc(-c3ccc(Cl)cc3)c2)c1Cl` [Example 208], the Efficacy (in the data set with Puccinia triticina; in the data set with Pyrenophora teres; with Septoria tritici; in data set [2] (500 ppm)) was 100% in each case. Besides, the lipophilicity (logP) in [1] turned out to be 4.04.
Regarding `Cn1nc(C(F)F)c(C(=O)Nc2ccccc2-c2cccc(Cl)c2)c1F` [Example 86], the Efficacy in the data set on Alternaria solani came to 95%; in the data set with Puccinia triticina it was 100%; with Pyrenophora teres, 100%; in the data set with Septoria tritici it was 86%; with Uromyces appendiculatus, 100%; with Botrytis cinerea it was 100%. The Efficacy in the data set with Venturia inaequalis is given as 100%; in data set [2] (500 ppm), 71%. The molecule also came in with a logP in data set [1] of 3.55.
Take `Cn1nc(C(F)F)c(C(=O)Nc2cccc3c2C2CCC3C2=C(Cl)Cl)c1Cl` (stereo not shown) [Example 71]: the Efficacy with Alternaria solani came out at 80%; in the data set with Sphaerotheca fuliginea, 100%; in the data set on Puccinia triticina, 100%; with Pyrenophora teres, 100%; in the data set with Uromyces appendiculatus it was 100%; with Botrytis cinerea it was 94%. In addition, the results for the Efficacy (with Venturia inaequalis; in [2] (250 ppm); in data set [2] (500 ppm)) were 100%, 94% and 94%, respectively. Besides, in data set [1], the logP stood at 4.21.
Take `Cn1nc(C(F)F)c(C(=O)Nc2ccccc2-c2ccc(C(F)(F)F)c(F)c2)c1F` [Example 149]: the Efficacy in the data set on Alternaria solani, with Sphaerotheca fuliginea, in the data set with Puccinia triticina, in the data set on Pyrenophora teres, in the data set with Septoria tritici and in the data set with Uromyces appendiculatus was 100% each time. In addition, the Efficacy worked out at 99% with Botrytis cinerea, 100% in the data set on Venturia inaequalis and 93% in data set [2] (500 ppm). The same molecule returned a logP in data set [1] of 3.46.
Regarding `Cn1nc(C(F)F)c(C(=O)Nc2ccccc2-c2ccc(F)c(F)c2)c1Cl` [Example 89], the Efficacy is 94% with Alternaria solani; 100% with Sphaerotheca fuliginea; 100% in the data set with Puccinia triticina; 100% in the data set with Pyrenophora teres; 100% in the data set on Uromyces appendiculatus; 100% in the data set on Botrytis cinerea. Moreover, the Efficacy (in the data set with Venturia inaequalis; in data set [2] (500 ppm)) was 100% throughout. Besides, the logP in data set [1] is 3.40.
`Cn1nc(C(F)F)c(C(=O)Nc2ccccc2-c2ccc(Cl)c(Cl)c2)c1F` [Example 125]: the Efficacy in the data set on Alternaria solani was determined as 95%; with Sphaerotheca fuliginea it was 98%; in the data set with Puccinia triticina, 100%; in the data set with Pyrenophora teres, 100%; in the data set with Uromyces appendiculatus, 100%; in the data set with Botrytis cinerea, 100%. The molecule also displayed an Efficacy in the data set on Venturia inaequalis of 100%. The logP in data set [1] is 3.85.
For the molecule `Cn1nc(C(F)F)c(C(=O)Nc2ccccc2-c2cc(F)c(F)cc2F)c1Cl` [Example 108], the Efficacy in the data set on Alternaria solani is 100%; in the data set with Sphaerotheca fuliginea, 93%; in the data set on Uromyces appendiculatus, 100%; in the data set on Botrytis cinerea, 99%; in the data set on Venturia inaequalis, 100%. In data set [1], this molecule displayed a lipophilicity (logP) of 3.46.
In the case of `COC(C)(C)CCc1ccccc1NC(=O)c1c(C(F)F)nn(C)c1F` [Example 23], the Efficacy is 70% in the data set on Alternaria solani; 100% in the data set on Puccinia triticina; 71% in the data set on Pyrenophora teres; 100% in the data set with Septoria tritici; 90% in the data set with Uromyces appendiculatus; 100% with Venturia inaequalis. This molecule also came in with a lipophilicity (logP) in data set [1] of 2.74.
